Like-named read-outs stand apart in the source and are kept apart here.
Key:
BTK [1] = molecular target: T1, BTK (Homo sapiens, UniProt Q06187); assay: biochemical; settings: read-out: BTK inhibition (%), 0.75 uM BTK, […] probe 3l, 15 min preincubation
BTK [2] = molecular target: T1, BTK; settings: 0.75 uM BTK, […] probe 3l, 15 min preincubation, 10 µM, inhibitor
wild-type BTK = wild-type BTK (Homo sapiens, UniProt Q06187); assay: In vitro kinase activity assay (Nanosyn)
Protocol: (§1) Kinase reactions are assembled in 384-well plates (Greiner) in a total volume of 20 μL. Test compounds were diluted in DMSO to a final concentration, while the final concentration of DMSO in all assays was kept at 1%. The compounds were incubated with the kinases for 2 h. […] The reaction was initiated by 2-fold dilution into a solution containing 5 μM ATP and 1 μM substrate in the kinase buffer

BMX = molecular target: T2, BMX (Homo sapiens, UniProt P51813); assay: In vitro kinase activity assay (Nanosyn)
T2 sequence (P51813 1-675): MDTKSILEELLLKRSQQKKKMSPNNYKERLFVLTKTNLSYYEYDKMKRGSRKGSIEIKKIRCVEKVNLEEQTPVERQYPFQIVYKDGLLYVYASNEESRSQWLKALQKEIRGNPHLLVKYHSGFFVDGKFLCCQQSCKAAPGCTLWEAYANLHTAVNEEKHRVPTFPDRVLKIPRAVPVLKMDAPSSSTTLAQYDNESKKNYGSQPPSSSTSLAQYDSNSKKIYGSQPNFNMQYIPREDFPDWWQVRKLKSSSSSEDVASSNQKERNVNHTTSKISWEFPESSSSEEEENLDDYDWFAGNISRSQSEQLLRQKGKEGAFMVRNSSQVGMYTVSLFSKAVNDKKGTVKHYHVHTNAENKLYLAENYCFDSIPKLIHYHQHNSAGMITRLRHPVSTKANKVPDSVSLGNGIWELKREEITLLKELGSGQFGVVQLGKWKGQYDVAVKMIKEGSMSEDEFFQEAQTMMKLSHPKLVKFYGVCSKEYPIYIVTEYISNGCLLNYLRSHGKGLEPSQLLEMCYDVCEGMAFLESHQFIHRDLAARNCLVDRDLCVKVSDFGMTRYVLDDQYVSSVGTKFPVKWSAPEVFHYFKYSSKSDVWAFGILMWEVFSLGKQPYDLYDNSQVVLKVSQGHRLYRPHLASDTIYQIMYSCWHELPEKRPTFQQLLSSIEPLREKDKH
Protocol: as §1

EGFR = EGFR (Homo sapiens, UniProt P00533); assay: In vitro kinase activity assay (Nanosyn); assay type: biochemical; settings: for IC50: rounded, 2 h preincubation, 5 μM ATP
EGFR, sequence (P00533 25-1210): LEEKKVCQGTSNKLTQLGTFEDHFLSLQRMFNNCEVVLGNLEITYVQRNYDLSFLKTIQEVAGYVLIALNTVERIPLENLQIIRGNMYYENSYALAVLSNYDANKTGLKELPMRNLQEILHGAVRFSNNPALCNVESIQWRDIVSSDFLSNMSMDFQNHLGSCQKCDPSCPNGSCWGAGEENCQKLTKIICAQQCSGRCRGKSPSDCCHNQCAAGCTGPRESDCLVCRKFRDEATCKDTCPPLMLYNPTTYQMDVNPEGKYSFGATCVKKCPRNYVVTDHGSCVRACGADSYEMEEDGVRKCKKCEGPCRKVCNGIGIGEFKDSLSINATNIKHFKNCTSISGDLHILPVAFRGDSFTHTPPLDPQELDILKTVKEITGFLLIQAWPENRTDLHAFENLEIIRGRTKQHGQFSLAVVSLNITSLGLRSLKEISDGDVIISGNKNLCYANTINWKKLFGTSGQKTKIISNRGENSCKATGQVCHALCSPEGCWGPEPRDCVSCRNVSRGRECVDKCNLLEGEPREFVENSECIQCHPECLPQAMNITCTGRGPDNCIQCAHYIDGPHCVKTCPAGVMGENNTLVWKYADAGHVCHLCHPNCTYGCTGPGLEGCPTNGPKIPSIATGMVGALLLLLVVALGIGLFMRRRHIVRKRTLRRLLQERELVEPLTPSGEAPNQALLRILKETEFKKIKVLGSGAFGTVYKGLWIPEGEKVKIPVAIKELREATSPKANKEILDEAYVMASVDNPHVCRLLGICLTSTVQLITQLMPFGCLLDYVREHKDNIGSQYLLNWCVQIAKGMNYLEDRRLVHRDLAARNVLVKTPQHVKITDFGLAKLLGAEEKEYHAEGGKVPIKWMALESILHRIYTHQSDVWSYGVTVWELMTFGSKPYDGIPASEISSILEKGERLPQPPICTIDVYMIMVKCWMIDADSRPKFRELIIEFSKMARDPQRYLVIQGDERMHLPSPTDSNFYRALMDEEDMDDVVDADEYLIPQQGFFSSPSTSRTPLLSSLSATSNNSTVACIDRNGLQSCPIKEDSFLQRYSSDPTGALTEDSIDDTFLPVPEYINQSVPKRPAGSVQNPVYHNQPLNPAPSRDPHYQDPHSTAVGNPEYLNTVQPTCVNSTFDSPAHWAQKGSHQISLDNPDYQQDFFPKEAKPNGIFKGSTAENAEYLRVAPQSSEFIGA
Protocol: as §1
in 100 mM HEPES, pH 7.5, 0.1% BSA, 0.01% Triton X-100, 1 mM DTT, 10 mM MnCl2.
initiated by 2-fold dilution into a solution containing 5 μM ATP and 1 μM substrate in the kinase buffer.

primary mouse B cells = assay: B-cell response experiment (anti-IgM activation, CD86 by flow cytometry); assay type: cell-based; settings: representative FACS plot, concentration not given
ERBB2 = ERBB2 (Homo sapiens, UniProt P04626); assay: In vitro kinase activity assay (Nanosyn)
ERBB2, sequence (P04626 23-1255, species assumed): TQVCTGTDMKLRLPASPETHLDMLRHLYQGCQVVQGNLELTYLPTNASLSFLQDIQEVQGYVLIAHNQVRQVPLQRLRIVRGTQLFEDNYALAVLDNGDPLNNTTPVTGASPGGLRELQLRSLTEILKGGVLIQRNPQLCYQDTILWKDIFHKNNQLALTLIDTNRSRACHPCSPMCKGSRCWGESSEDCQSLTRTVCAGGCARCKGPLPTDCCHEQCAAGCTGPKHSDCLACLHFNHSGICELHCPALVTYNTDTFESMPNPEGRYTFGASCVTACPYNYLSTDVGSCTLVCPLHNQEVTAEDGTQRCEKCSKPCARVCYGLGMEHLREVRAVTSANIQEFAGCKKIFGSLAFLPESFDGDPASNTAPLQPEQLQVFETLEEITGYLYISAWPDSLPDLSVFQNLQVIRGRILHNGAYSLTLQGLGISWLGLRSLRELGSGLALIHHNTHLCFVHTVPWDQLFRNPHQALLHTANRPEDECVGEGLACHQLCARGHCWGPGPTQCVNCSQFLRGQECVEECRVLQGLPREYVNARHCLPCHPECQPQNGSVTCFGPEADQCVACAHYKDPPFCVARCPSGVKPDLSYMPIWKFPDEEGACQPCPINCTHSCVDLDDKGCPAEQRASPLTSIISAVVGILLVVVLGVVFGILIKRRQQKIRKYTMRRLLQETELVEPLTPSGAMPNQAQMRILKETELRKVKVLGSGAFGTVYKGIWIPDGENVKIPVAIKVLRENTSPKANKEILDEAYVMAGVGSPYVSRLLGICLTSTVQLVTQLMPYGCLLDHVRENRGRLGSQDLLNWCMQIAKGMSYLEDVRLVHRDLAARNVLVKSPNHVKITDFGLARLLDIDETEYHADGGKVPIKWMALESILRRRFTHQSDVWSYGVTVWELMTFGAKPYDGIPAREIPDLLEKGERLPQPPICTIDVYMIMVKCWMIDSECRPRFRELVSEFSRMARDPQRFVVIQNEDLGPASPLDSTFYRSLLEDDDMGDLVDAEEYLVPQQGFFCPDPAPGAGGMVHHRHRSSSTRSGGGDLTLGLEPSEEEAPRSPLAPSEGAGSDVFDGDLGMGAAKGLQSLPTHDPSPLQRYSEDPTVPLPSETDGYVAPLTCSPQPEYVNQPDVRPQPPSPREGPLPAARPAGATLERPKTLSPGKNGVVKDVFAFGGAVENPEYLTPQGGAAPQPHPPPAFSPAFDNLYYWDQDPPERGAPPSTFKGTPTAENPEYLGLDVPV
Protocol: as §1

BLK = BLK (Homo sapiens, UniProt P51451); assay: In vitro kinase activity assay (Nanosyn)
BLK, sequence (P51451 whole entry, species assumed): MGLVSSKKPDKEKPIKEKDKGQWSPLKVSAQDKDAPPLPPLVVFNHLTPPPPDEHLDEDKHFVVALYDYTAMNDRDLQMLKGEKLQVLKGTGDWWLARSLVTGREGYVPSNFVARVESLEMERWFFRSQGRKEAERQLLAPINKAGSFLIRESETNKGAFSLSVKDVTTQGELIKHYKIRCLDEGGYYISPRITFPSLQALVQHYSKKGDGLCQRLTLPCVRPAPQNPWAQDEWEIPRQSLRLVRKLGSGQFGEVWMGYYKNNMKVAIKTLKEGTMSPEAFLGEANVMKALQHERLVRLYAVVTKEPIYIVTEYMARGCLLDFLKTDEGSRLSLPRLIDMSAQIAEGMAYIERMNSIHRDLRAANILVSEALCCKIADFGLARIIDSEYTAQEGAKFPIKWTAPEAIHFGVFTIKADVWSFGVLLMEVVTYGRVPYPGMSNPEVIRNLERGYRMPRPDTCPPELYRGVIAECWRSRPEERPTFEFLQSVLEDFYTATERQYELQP
Protocol: as §1

ITK = molecular target: T3, ITK (Homo sapiens, UniProt Q08881); assay: In vitro kinase activity assay (Nanosyn)
T3 sequence (Q08881 1-620): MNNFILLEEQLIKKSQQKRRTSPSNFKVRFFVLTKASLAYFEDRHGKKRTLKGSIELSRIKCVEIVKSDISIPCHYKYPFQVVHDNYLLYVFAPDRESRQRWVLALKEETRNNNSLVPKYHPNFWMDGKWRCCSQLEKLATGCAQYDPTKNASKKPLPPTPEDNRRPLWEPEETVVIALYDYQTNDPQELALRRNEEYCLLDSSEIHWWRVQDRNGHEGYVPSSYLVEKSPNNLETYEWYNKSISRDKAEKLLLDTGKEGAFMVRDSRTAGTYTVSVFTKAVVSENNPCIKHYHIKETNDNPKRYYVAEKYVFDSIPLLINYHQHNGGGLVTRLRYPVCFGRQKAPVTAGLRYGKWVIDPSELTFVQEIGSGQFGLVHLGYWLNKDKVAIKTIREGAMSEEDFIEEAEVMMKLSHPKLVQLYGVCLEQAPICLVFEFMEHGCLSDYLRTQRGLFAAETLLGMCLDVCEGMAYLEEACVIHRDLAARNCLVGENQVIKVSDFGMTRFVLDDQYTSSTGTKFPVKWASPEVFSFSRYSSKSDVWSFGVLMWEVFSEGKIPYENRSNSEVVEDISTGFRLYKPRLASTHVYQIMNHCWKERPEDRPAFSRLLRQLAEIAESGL
Protocol: as §1

BTK kinase domain = BTK kinase domain (Homo sapiens, UniProt Q06187); assay: Kinetic labeling of BTK by intact protein LC/MS; assay type: binding
BTK kinase domain, sequence (Q06187 402-655 limits assumed): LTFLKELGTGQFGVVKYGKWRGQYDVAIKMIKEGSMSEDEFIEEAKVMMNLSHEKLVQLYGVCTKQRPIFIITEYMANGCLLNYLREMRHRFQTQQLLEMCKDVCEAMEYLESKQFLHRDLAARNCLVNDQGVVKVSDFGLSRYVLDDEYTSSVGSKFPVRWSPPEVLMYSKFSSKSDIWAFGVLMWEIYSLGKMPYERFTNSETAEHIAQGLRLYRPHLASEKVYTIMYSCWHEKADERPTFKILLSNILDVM

Mino cells = assay: In-gel fluorescence activity-based profiling (in situ proteomic labeling); assay type: cell-based; settings: Mino cells treated for 2 h, TAMRA-azide click
Protocol: Mino cells were treated for 2 h with either 0.1% DMSO or the indicated concentrations of IA-alkyne, 2a, 2b, and 2c. The cells were lysed with RIPA buffer (Sigma), and protein concentration was determined using the BCA protein assay (Thermo Fisher Scientific). Lysates were then diluted to 2 mg/mL in PBS and clicked to TAMRA-azide (click chemistry tools). Click reaction was performed using a final concentration of 40 μM TAMRA-azide, 3 mM CuSO4, 3 mM tris(3-hydroxypropyltriazolylmethyl)amine (THPTA, Sigma), and 3.7 mM sodium L-ascorbate (Sigma) in a final volume of 60 μL. The samples were incubated at 25 °C for 2 h. A 20 μL amount of 4× LDS sample buffer (NuPAGE, Thermo Fischer Scientific) was added followed by a 10 min incubation at 70 °C. The samples were then loaded on a 4–20% Bis-Tris gel (SurePAGE, GeneScript) and imaged using a Typhoon FLA 9500 scanner.

BTK [3] = molecular target: T1, BTK; assay: biochemical; design: HTS: BTK preincubated 15 min with compound, then chemiluminescent covalent probe 3l; loss of luminescence at 30 min; settings: 0.75 uM BTK, 1.5 uM probe 3l, 15 min preincubation
[4] = GSH reactivity assay for ibrutinib derivatives (LC/MS); assay type: physicochemical; settings: 5 mM GSH in phosphate buffer/DMF 9:1, 100 μM compound, buffer pH 8.0:DMF 9:1, 37 °C
Protocol: (§2) LC/MS runs were performed on a Waters ACUITY UPLC class H instrument, in positive ion mode using electrospray ionization. […] The column was held at 40 °C, and the autosampler at 10 °C. Mobile phase A was 0.1% formic acid in the water, and mobile phase B was 0.1% formic acid in acetonitrile. The run flow was 0.3 mL/min. […] The column was held at 40 °C, and the autosampler at 10 °C. Mobile solution A was 0.1% formic acid in the water, and mobile phase B was 0.1% formic acid in acetonitrile.
All solvents were bubbled with argon.

[5] = GSH reactivity assay for model compounds (LC/MS); assay type: physicochemical; settings: 100 μM 1i and 5 mM GSH in PBS buffer, pH 8, 37 °C (n = 3)
Protocol: as §2
All solvents were bubbled with argon. Reaction mixtures were kept at 37 °C with shaking. At various times 5 μL from the reaction mixture was injected into the LC/MS.

[6] = BTK IC50, in vitro kinase activity assay
[7] = BTK IC50, rounded, 2 h preincubation, 5 μM ATP

T1 sequence (Q06187 402-655 limits assumed): as above
wild-type BTK, sequence (Q06187 whole entry): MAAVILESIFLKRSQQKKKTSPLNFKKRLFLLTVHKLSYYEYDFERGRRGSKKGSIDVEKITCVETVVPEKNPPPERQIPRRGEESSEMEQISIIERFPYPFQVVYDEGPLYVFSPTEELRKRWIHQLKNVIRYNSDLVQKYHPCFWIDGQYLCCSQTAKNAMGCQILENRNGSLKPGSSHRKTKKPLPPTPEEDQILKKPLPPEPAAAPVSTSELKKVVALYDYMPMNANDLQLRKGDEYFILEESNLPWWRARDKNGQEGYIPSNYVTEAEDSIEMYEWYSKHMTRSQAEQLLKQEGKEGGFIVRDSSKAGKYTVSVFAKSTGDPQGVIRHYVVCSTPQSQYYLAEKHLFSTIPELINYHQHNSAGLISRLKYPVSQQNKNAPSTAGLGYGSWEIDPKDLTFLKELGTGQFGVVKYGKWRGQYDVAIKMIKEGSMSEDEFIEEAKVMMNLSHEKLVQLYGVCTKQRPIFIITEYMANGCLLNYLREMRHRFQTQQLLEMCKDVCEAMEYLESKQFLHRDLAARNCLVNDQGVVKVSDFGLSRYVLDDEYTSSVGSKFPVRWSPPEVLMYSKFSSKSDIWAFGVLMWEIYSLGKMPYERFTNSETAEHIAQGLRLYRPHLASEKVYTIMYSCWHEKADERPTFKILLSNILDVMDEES

CNCCc1ccccn1 [PCM-0086123]
inhibition at 10 µM (BTK [1]): 5.5%
BTK inhibition (%) (BTK [2]; BTK inhibition (%)): 5.4%

C=C(C)C(=O)N1CCC[C@@H](n2nc(-c3ccc(Oc4ccccc4)cc3)c3c(N)ncnc32)C1 [3a]
IC50 (wild-type BTK; BTK IC50, 0.6 nM BTK, 5 μM ATP, Figure 4C): 12.2 nM

CCOc1ccccc1OCCN[C@H](C)Cc1ccc(OC)c(S(N)(=O)=O)c1 [PCM-0214853]
inhibition at 10 µM (BTK [1]): 7%
BTK inhibition (%) (BTK [2]; BTK inhibition (%)): 13.2%

C=C(COC(C)=O)C(=O)N1CCC[C@@H](n2nc(-c3ccc(Oc4ccccc4)cc3)c3c(N)ncnc32)C1 [3h]
IC50 (BMX): 0.3 nM
IC50 (EGFR): 28 nM
B220+ cells-activated (CD86 positive) (primary mouse B cells): 82.9%
IC50 (ERBB2): 196 nM
IC50 (BLK): 0.6 nM
IC50 (ITK): 295 nM
IC50 (wild-type BTK; [6]): < 0.1 nM
IC50 (wild-type BTK; [7]): 0.1 nM

Cc1ccc(-n2[nH]c(C)c(N=Nc3cccc(-c4cccc(C(=O)O)c4)c3O)c2=O)cc1C [PCM-0214811]
inhibition at 10 µM (BTK [1]): 80.2%
BTK inhibition (%) (BTK [2]; BTK inhibition (%)): 77%

C=C(CN1CCCCC1)C(=O)N1CCC[C@@H](n2nc(-c3ccc(Oc4ccccc4)cc3)c3c(N)ncnc32)C1 [3c]
IC50 (BMX): 0.3 nM
IC50 (EGFR): 7 nM
B220+ cells-activated (CD86 positive) (primary mouse B cells): 81.6%
BTK labeling mechanism (BTK kinase domain): exclusively through addition with no substitution product
IC50 (ERBB2): 33 nM
IC50 (BLK): 0.1 nM
IC50 (ITK): 43 nM
IC50 (wild-type BTK; [6]): < 0.1 nM
IC50 (wild-type BTK; [7]): 0.1 nM

COc1cc2nccc(Oc3ccc(NC(=O)C4(C(=O)Nc5ccc(F)cc5)CC4)cc3)c2cc1OC [PCM-0094920]
inhibition at 10 µM (BTK [1]): 86.9%
BTK inhibition (%) (BTK [2]; BTK inhibition (%)): 123.4%

Cc1cc(Nc2cc(N3CCN(C)CC3)nc(/C=C/c3ccccc3)n2)n[nH]1 [PCM-0095056]
inhibition at 10 µM (BTK [1]): 85.5%
BTK inhibition (%) (BTK [2]; BTK inhibition (%)): 91%

C#CCCNC(=O)C(=C)COc1ccc2ccc(=O)oc2c1 [2a]
in situ proteomic labeling (in-gel fluorescence) (Mino cells): labeled more proteins compared to 2b

C#CCCNC(=O)C(=C)CN(C)c1ccccc1 [2c]
in situ proteomic labeling (in-gel fluorescence) (Mino cells): completely inactive

CN(C)[C@@H]1C(=O)C(C(N)=O)=C(O)[C@@]2(O)C(=O)C3=C(O)c4c(O)cccc4[C@@](C)(O)[C@H]3[C@H](O)[C@@H]12 [PCM-0214652]
inhibition at 10 µM (BTK [1]): 35.8%
BTK inhibition (%) (BTK [2]; BTK inhibition (%)): 33.5%

O=c1c(O)c(-c2ccc(O)c(O)c2)oc2cc(O)cc(O)c12 [PCM-0065486]
inhibition at 10 µM (BTK [1]): 48.2%
BTK inhibition (%) (BTK [2]; BTK inhibition (%)): 39.3%

COc1cc(Nc2ncc(F)c(Nc3ccc4c(n3)NC(=O)C(C)(C)O4)n2)cc(OC)c1OC [PCM-0095093]
inhibition at 10 µM (BTK [1]): 32.4%
BTK inhibition (%) (BTK [2]; BTK inhibition (%)): 31.7%

CC(C)[C@]12O[C@H]1[C@@H]1O[C@@]13[C@@]1(C)CCC4=C(COC4=O)[C@@H]1C[C@@H]1O[C@@]13C2=O [PCM-0216318]
inhibition at 10 µM (BTK [3]): -26.3%

CC[C@]12C=CCN3CC[C@]4(C(=C(C(=O)OC)C1)Nc1ccccc14)[C@@H]32 [PCM-0215925]
inhibition at 10 µM (BTK [1]): 10.8%
BTK inhibition (%) (BTK [2]; BTK inhibition (%)): 13.9%

CN1CC[C@H](c2c(O)cc(O)c3c(=O)cc(-c4ccccc4Cl)oc23)[C@H](O)C1 [PCM-0095354]
inhibition at 10 µM (BTK [1]): 29.7%
BTK inhibition (%) (BTK [2]; BTK inhibition (%)): 17.2%

C=C(COC(=O)OC)C(=O)N1CCC[C@@H](n2nc(-c3ccc(Oc4ccccc4)cc3)c3c(N)ncnc32)C1 [3i]
IC50 (BMX): 0.4 nM
IC50 (EGFR): 31 nM
B220+ cells-activated (CD86 positive) (primary mouse B cells): 85.0%
IC50 (ERBB2): 172 nM
IC50 (BLK): 0.8 nM
IC50 (ITK): 232 nM

C=C(CN(C)c1ccccc1)C(=O)N1CCC[C@@H](n2nc(-c3ccc(Oc4ccccc4)cc3)c3c(N)ncnc32)C1 [3d]
half-life at 100 μM [4]: > 100 h
IC50 (wild-type BTK): 5.6 nM

C[C@]12CC[C@H](O)C[C@@]1(O)CC[C@@H]1[C@@H]2CC[C@]2(C)[C@@H](C3=CC(=O)OC3)CC[C@]12O [PCM-0216443]
inhibition at 10 µM (BTK [3]): 6.2%

CN(c1ncccc1CNc1nc(Nc2ccc3c(c2)CC(=O)N3)ncc1C(F)(F)F)S(C)(=O)=O [PCM-0095340]
inhibition at 10 µM (BTK [1]): 84.8%
BTK inhibition (%) (BTK [2]; BTK inhibition (%)): 78.6%

C=CC(=O)N1CCC[C@@H](n2nc(-c3ccc(Oc4ccccc4)cc3)c3c(N)ncnc32)C1 [ibrutinib, reference compound]
B220+ cells-activated (CD86 positive) (primary mouse B cells): 81.2%

C=C(COc1ccc2ccc(=O)oc2c1)C(=O)NCc1ccccc1 [1i]
rate of depletion of 1i, k [5]: 0.24 h⁻¹
rate of formation of coumarin, k [5]: 0.24 h⁻¹

C=C(CNCc1ccccc1)C(=O)N1CCC[C@@H](n2nc(-c3ccc(Oc4ccccc4)cc3)c3c(N)ncnc32)C1 [3e]
IC50 (BMX): 0.4 nM
BMX/BTK (BMX; selectivity ratio of IC50): 5
IC50 (EGFR): 3 nM
EGFR/BTK (EGFR; selectivity ratio of IC50): 36
B220+ cells-activated (CD86 positive) (primary mouse B cells): 77.3%
BTK labeling mechanism (BTK kinase domain): exclusively through addition with no substitution product
half-life at 100 μM [4]: > 100 h
IC50 (ERBB2): 13 nM
ERBB2/BTK (ERBB2; selectivity ratio of IC50): 169
IC50 (BLK): 0.1 nM
BLK/BTK (BLK; selectivity ratio of IC50): 1
IC50 (ITK): 30 nM
ITK/BTK (ITK; selectivity ratio of IC50): 383
IC50 (wild-type BTK; [6]): < 0.1 nM
IC50 (wild-type BTK; [7]): 0.1 nM

Cc1cc(C2CCCCC2)n(O)c(=O)c1 [PCM-0086120]
inhibition at 10 µM (BTK [1]): 39.7%
BTK inhibition (%) (BTK [2]; BTK inhibition (%)): 28%

CN1C2=C3N=c4ccccc4=C3CCN2C(=O)c2ccccc21 [PCM-0215051]
BTK inhibition (%) (BTK [2]; BTK inhibition (%)): 4.7%

O=C(O[C@H]1C[N+]2(CCCOc3ccccc3)CCC1CC2)C(O)(c1cccs1)c1cccs1 [PCM-0214751]
BTK inhibition (%) (BTK [2]): -24.1%

C[C@H](O)[C@H](O)[C@@H](O)[C@@H](O)C=O [PCM-0094862]
BTK inhibition (%) (BTK [2]; BTK inhibition (%)): -7.8%

COc1cc2c3cc1Oc1c(OC)c(OC)cc4c1[C@@H](Cc1ccc(O)c(c1)Oc1ccc(cc1)C[C@@H]3N(C)CC2)N(C)CC4 [PCM-0214866]
inhibition at 10 µM (BTK [1]): 21.4%
BTK inhibition (%) (BTK [2]; BTK inhibition (%)): 17.8%

C=C1[C@H](CO)[C@@H](O)C[C@@H]1n1cnc2c(=O)[nH]c(N)nc21 [PCM-0095007]
BTK inhibition (%) (BTK [2]; BTK inhibition (%)): -4.7%
